Test results taken from PubChem BioAssay (NCI).
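Grown in 96-well plates, cells were treated for 48 hours with each compound at five concentrations. Insufficient inhibition: endpoint recorded as highest concentration tested. TGI marks complete inhibition of growth.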

How the values were obtained:
Experiment in all cases: NCI tumour cell line growth inhibition, 48 h
[1] = system: T-47D breast
[2] = system: PC-3 prostate
[3] = system: DU-145 prostate
[4] = system: ACHN renal
[5] = system: P388 leukemia
[6] = system: SN12K1 renal
[7] = system: SNB-78 CNS
[8] = system: HOP-18 NSCLC
[9] = system: BT-549 breast
[10] = system: LXFL 529 NSCLC

Structure (SMILES): N=C(N)SCCC(=O)CCSC(=N)N
- TGI [1]: > 100 µM
- TGI [2]: > 100 µM
- TGI [3]: > 100 µM
- TGI [4]: > 100 µM

Structure (SMILES): COc1ccc2c(c1)OCCc1cn[nH]c1-2
- TGI [5]: > 100 µM
- TGI [6]: > 100 µM
- TGI [7]: > 100 µM
- TGI [8]: > 100 µM

Structure (SMILES): COC(=O)C1=C(O)C(C(=O)OC)[C@]2(O)[C@@H](C(=O)OC)[C@H]1C[C@@H](c1ccccc1)[C@@H]2C(=O)OC (stereo not given in full)
- TGI [1]: > 100 µM
- TGI [3]: 27 µM
- TGI [4]: 55.7 µM
- TGI [9]: 33.5 µM

Structure (SMILES): O=NN(CCF)C(=O)NC1CC2CCC1C2 (stereo not given)
- TGI [5]: 50.3 µM
- TGI [6]: > 100 µM
- TGI [7]: > 100 µM
- TGI [8]: > 100 µM

Structure (SMILES): C[S+](C)CC1OC(n2cnc3c(N)ncnc32)C(O)C1O (stereo not given)
- TGI [5]: > 225 µM
- TGI [6]: > 225 µM
- TGI [7]: > 225 µM

Structure (SMILES): CC(C)OP(=O)(OC(C)C)C1=NN(c2ccc([N+](=O)[O-])cc2)C(P(=O)(OC(C)C)OC(C)C)=NN1c1ccc([N+](=O)[O-])cc1
- TGI [10]: > 100 µM
- TGI [4]: > 100 µM
- TGI [8]: > 100 µM

Structure (SMILES): Cc1ccc(Sc2ccccc2[N+](=O)[O-])cc1
- TGI [10]: > 100 µM
- TGI [4]: > 100 µM
- TGI [7]: 95.4 µM
- TGI [8]: > 100 µM

Structure (SMILES): CN(C)CCNC(=O)c1cccc2cc3cc(O)ccc3nc12
- TGI [5]: 1.25 µM
- TGI [6]: 2.66 µM
- TGI [7]: 18.2 µM
- TGI [8]: 3.83 µM

Structure (SMILES): O=Nn1c2ccccc2c2cc([N+](=O)[O-])ccc21
- TGI [1]: > 100 µM
- TGI [2]: 35 µM
- TGI [3]: 28.5 µM
- TGI [4]: 29.3 µM
- TGI [9]: 38.3 µM
